The data set in a line: gradient 5% acetonitrile 3 min, to 50% in 2 min, to 85% in 15 min, held 3 min, 100 µL/min. The note with it: column: Zorbax Extend-C18 2.1 x 50 mm; eluents: water / acetonitrile, 0.1% formic acid. A digest of the protocol:
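Pure standards were analyzed in mixtures of ~100 molecules using HPLC coupled to a quadrupole time-of-flight mass spectrometer, in both positive and negative ionization mode. Separation used a Zorbax Extend-C18 column (2.1 × 50 mm, 1.8 μm) at 100 μL/min, with water and acetonitrile each containing 0.1% formic acid. Dead and dwell volumes were 40 μL and 900 μL, and data were collected over 3 months. Retention time was read from computationally picked adduct peaks, each inspected manually.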
As to `CC(C)N1CCN(c2ncccc2-c2nnc(-c3ccc(Cl)cc3)o2)CC1`, the RP-LC retention time was determined as 670 s.

The compound `CN(C)Cc1nc(-c2cn(C)c3ccccc23)no1` came in with an RP-LC retention time of 684 s.

`Cc1ccc(S(=O)(=O)N2CCCC(c3nnc(CC(C)(C)C)o3)C2)cc1C` (centres undefined) came in with an RP-LC retention time of 1030 s.

Consider `O=C(CCc1c[nH]c2ccccc12)N1CCCN(C2CCN(CC3CC3)C2=O)CC1` (centres undefined), for which the RP-LC retention time was determined as 570 s.

In turn, `COc1ccc(C)cc1NC(=O)C1CCN(S(C)(=O)=O)c2cc(Cl)ccc2O1` (centres undefined) yielded an RP-LC retention time of 1100 s.

Compound `Cn1nnc2cc(-c3noc(COc4ccc(Cl)cc4)n3)ccc21` came in with an RP-LC retention time of 994 s.

For the compound `CN1C(=O)COc2ccc(-c3csc(NC(=O)C4CCCCC4)n3)cc21`, the RP-LC retention time came to 988 s.

`O=C(Nc1c(F)cccc1F)N1CCc2nc(-c3ccc(F)cc3)ncc2C1`: the RP-LC retention time is 932 s.

`COCCn1cc(C(=O)Nc2ccc(Cl)cc2)c2nn(-c3ccccc3)c(=O)c-2c1`: the RP-LC retention time amounted to 1050 s.

Compound `COc1ccc(OCc2noc(CNC(=O)CSc3nc4ccccc4o3)n2)cc1` returned an RP-LC retention time of 806 s.

With `CCc1cccc(C)c1NC(=O)Cn1nc2n(c1=O)CCCC2`, the RP-LC retention time is 717 s.

In the case of `CCOc1ccc(NC(=O)NCC(c2cccnc2)c2cn(CC)c3ccccc23)cc1` (centres undefined), the RP-LC retention time stood at 751 s.

As to `CCNC(=O)[C@H]1O[C@@H](n2cnc3c(N)nc(NCCc4ccc(CCC(=O)O)cc4)nc32)C(O)[C@H]1O` (some centres undefined), the RP-LC retention time turned out to be 503 s.

On to `Cc1ccc(-n2ncc3c(=O)n(Cc4nc(-c5cccc(C(F)(F)F)c5)no4)cnc32)cc1`, for which the RP-LC retention time is 1180 s.

For the compound `CSc1cccc(NC(=O)Cn2cnc3nc(N4CCC(C(=O)NC5CC5)CC4)sc3c2=O)c1`, the RP-LC retention time was found to be 696 s.

Consider `CSc1nc(N2CCCC2)c2cnn(CCNC(=O)c3cc(-c4ccco4)on3)c2n1`, for which the RP-LC retention time was determined as 849 s.

Regarding `O=C(c1ccc(Cl)cc1)N1CCN(c2cc(-c3ccc(Cl)cc3)[nH]n2)CC1`, the RP-LC retention time is 936 s.

Compound `CCCS(=O)(=O)c1nc2ccc(NS(=O)(=O)c3cc(OC)ccc3OC)cc2s1` came in with an RP-LC retention time of 909 s.

In the case of `O=S(=O)(Cc1ccccc1F)N1CCc2nnc(C3CC3)n2CC1`, the RP-LC retention time was found to be 626 s.

In turn, `CC1CCCN(c2nccnc2SCC(=O)Nc2ccc(F)cc2Cl)C1` (centres undefined) yielded an RP-LC retention time of 1300 s.

As for `Cc1ccc(-c2nnc(N3CCC(C(=O)N4CCN(CC(C)C)CC4)CC3)o2)cc1`, the RP-LC retention time is 639 s.

With `Cc1ccc(CNC(=O)Cn2nc3c4ccc(Cl)cc4ncn3c2=O)cc1`, the RP-LC retention time stood at 753 s.

`O=C(N[C@H]1C[C@@H]2C[C@H]1N(C(=O)c1ccc(F)c(Cl)c1)C2)c1ccccc1` yielded an RP-LC retention time of 850 s.

Consider `COc1ccc(-c2ccc(=O)n(CCNC(=O)c3ccno3)n2)cc1`, for which the RP-LC retention time turned out to be 628 s.

Turning to `O=C(Cn1c(=O)c2cccn2c2ccc(F)cc21)NCc1ccc(F)cc1`, the RP-LC retention time amounted to 818 s.

Take `Cc1cc(NC(=O)CSc2cc(-c3ccccc3)ncn2)no1`: the RP-LC retention time stood at 780 s.

For `CCC(C)NC(=O)c1ccc(CN2CCN(Cc3ccccc3)C(=O)C2=O)cc1` (centres undefined), the RP-LC retention time was 721 s.

Regarding `CCn1cc(C(=O)N2CCCc3ccccc32)c2nn(-c3ccccc3)c(=O)c-2c1`, the RP-LC retention time amounted to 788 s.

On to `COc1cc(CNC(=O)CCCC/C=C\C(C)C)ccc1O`, for which the RP-LC retention time came out at 947 s.

The compound `O=C(NC1CCN(C(=O)c2cc(-c3cccc(Cl)c3)n[nH]2)CC1)c1cccs1` displayed an RP-LC retention time of 718 s.

Turning to `CCS(=O)(=O)N1CCC([C@@H](C)n2c(C)c(C(=O)NCc3c(OC)cc(C)[nH]c3=O)c3ccccc32)CC1`, the RP-LC retention time is 777 s.

As for `Cc1ccc(NC(=O)N2CCN(c3cc(C)nc(N4CCOCC4)n3)CC2)c(C)c1`, the RP-LC retention time turned out to be 666 s.

`CNC(=O)[C@@H]1C[C@H](Oc2cccnc2)CN1C(=O)Cn1c(=O)oc2ccccc21` gave an RP-LC retention time of 582 s.

In turn, `CCNC(=O)N1CC(Oc2cccc(-c3nc(-c4ccccc4)no3)c2)C1` had an RP-LC retention time of 939 s.

`O=C(NC1CCCCC1N1C(=O)CSC1=O)c1cc(-c2ccc(F)cc2)n[nH]1` (centres undefined) registered an RP-LC retention time of 762 s.

Regarding `O=C(c1cccc(Cl)c1)N1CCN(C(=O)c2nnn3c2COC(c2ccc(F)cc2)C3)CC1` (centres undefined), the RP-LC retention time came out at 913 s.

The compound `O=C(C1=COCCO1)N1CCN(c2ccccc2)CC1` had an RP-LC retention time of 694 s.

For the compound `O=C(Nc1ccc(-n2cnc(C(=O)N3CCCCCC3)c2)nc1)C1CC1`, the RP-LC retention time turned out to be 698 s.

In turn, `Cc1cccc(CNC(=O)CN2C(=O)CCc3cc(Br)ccc32)c1` yielded an RP-LC retention time of 889 s.

In the case of `Cc1cc(N2CCCCC2)nc(N2CCN(S(=O)(=O)c3ccc(Br)cc3)CC2)n1`, the RP-LC retention time stood at 847 s.

As for `CCC1CN2C=Nc3oc(C)c(C(=O)Nc4ccc(C(F)(F)F)cc4)c3C2=N1` (centres undefined), the RP-LC retention time came out at 753 s.

The compound `COCCNC(=O)Nc1nc(-c2ccccc2)c(C(C)=O)s1` had an RP-LC retention time of 685 s.

As for `CCOCCCNC(=O)Nc1c(-c2cccc(C)c2)nc2ccccn12`, the RP-LC retention time came out at 863 s.

For `COc1ccccc1-c1nc2cnccn2c1NCCC(=O)NC1CCCCCC1`, the RP-LC retention time turned out to be 715 s.

`C=CCN(Cc1nc(-c2ccc(C)cc2)no1)C(=O)Nc1cccc(Cl)c1` yielded an RP-LC retention time of 1150 s.

Take `O=C(c1ccc2[nH]ccc2c1)N1CCN(c2cc(-c3ccc(Cl)cc3)[nH]n2)CC1`: the RP-LC retention time was 798 s.

`CN(Cc1cccn1C)C(=O)NC(C)(C)C` came in with an RP-LC retention time of 805 s.

On to `CSc1ccc(-c2noc(-c3nnn4c3COC(c3ccc(C)cc3C)C4)n2)cc1` (centres undefined), for which the RP-LC retention time came out at 1360 s.

In turn, `O=C(Nc1cnc(N2CCCCC2)nc1)C1CCCC1` came in with an RP-LC retention time of 834 s.

As for `O=C(NCCc1cccs1)C1CCc2nc(N3CCCC3)ncc2C1` (centres undefined), the RP-LC retention time was determined as 857 s.

On to `CCCCN1C(=O)C(C)(C(=O)Nc2ccc(F)cc2F)Oc2cccnc21` (centres undefined), for which the RP-LC retention time worked out at 1050 s.

`Brc1cccc(-c2noc(CSc3nccn3-c3ccccc3)n2)c1` returned an RP-LC retention time of 1020 s.

With `O=C(NC1CCCCCC1)c1ccc(CN2C(=O)C3CCCN3C(=O)c3ccccc32)cc1` (centres undefined), the RP-LC retention time was 818 s.

As for `CCCC(=O)Nc1ccc2c(c1)CC(C(=O)NCC(=O)OC)CO2` (centres undefined), the RP-LC retention time amounted to 650 s.

`O=C(NCC1CCCO1)c1ncoc1-c1ccccc1C(=O)N1CCCCC1` (centres undefined) had an RP-LC retention time of 692 s.

For `CCOC(=O)c1cc(S(=O)(=O)N2CC3CC(C2)c2cccc(=O)n2C3)cn1C` (centres undefined), the RP-LC retention time turned out to be 704 s.

`CCN1CCn2cc(S(=O)(=O)Nc3ccc(Cl)cc3F)cc2C1=O` registered an RP-LC retention time of 752 s.

In turn, `O=C(c1cc(S(=O)(=O)N2CCCC(C(=O)N3CCc4ccccc43)C2)c[nH]1)N1CCCCCC1` (centres undefined) yielded an RP-LC retention time of 949 s.

In the case of `Cc1ccc(CN2CCN(C3CCN(C(=O)Nc4ccc(C)cc4)CC3)C(=O)C2=O)cc1`, the RP-LC retention time is 768 s.

Compound `O=C(CCn1cnc2cc(-c3noc(COc4ccc(Cl)cc4)n3)ccc21)N1CCCC1` gave an RP-LC retention time of 786 s.

Compound `O=C(Nc1ccccc1)c1n[nH]c2c1CCCCCC2` gave an RP-LC retention time of 957 s.

Regarding `COc1cccc(Cn2cnc3c(-c4cccc(F)c4)csc3c2=O)c1`, the RP-LC retention time came to 1050 s.

With `COCCCNC(=O)c1ccc2cnn(Cc3ccc(Cl)cc3)c2c1`, the RP-LC retention time was found to be 812 s.

Regarding `COC(=O)c1cc(S(=O)(=O)N2CCCC2C(=O)N2CCC(C)CC2)cn1C` (centres undefined), the RP-LC retention time was determined as 770 s.

In turn, `O=C(Nc1cccc(Cl)c1)c1nn2c(C(F)(F)F)cc(-c3ccco3)nc2c1Cl` returned an RP-LC retention time of 1230 s.

`CCC1CN(CC(=O)N2CCN(c3ccccn3)CC2)c2ccccc2S1` (centres undefined) gave an RP-LC retention time of 723 s.

In the case of `Cc1ccccc1Nc1c(-c2ccccc2O)nc2c(C)cccn12`, the RP-LC retention time was 701 s.

`COCCN1C(=O)c2ccccc2C(C(=O)N2CCN(c3ccccn3)CC2)C1c1cccs1` (centres undefined): the RP-LC retention time came out at 621 s.

Turning to `O=C(Nc1nc(-c2ccccc2)cs1)c1c(-c2ccc(Cl)cc2)nc2n1CCS2(=O)=O`, the RP-LC retention time was found to be 1080 s.

The compound `Cc1nc(-c2cnccn2)n(CC(=O)Nc2ccc3c(c2)OCCO3)c(=O)c1C` showed an RP-LC retention time of 688 s.

The compound `O=C(CN1C(=O)CC(c2ccccc2)=Nc2ccccc21)NCc1ccccc1` came in with an RP-LC retention time of 919 s.

On to `Cc1ccc(S(=O)(=O)Nc2ccc(Nc3ccc(-n4cccn4)nn3)cc2)c(C)c1`, for which the RP-LC retention time came out at 829 s.

Regarding `COC1C(=O)N(C2CCN(C(=O)c3cnccn3)CC2)C12CCOCC2` (centres undefined), the RP-LC retention time was 555 s.

The compound `CCn1c(C(=O)N(C)C2CCCCC2)cc2c(=O)oc3ccccc3c21` registered an RP-LC retention time of 1010 s.

`CCOC(=O)C1CCN(C(=O)NCc2cccs2)CC1` came in with an RP-LC retention time of 677 s.

Consider `Cc1cccc(NC(=O)Cn2c(N3CCOCC3)nc(C)cc2=O)c1`, for which the RP-LC retention time is 672 s.

In the case of `CCOc1ccc(NC(=O)N2CCN(c3nc4cccnc4s3)CC2)cc1`, the RP-LC retention time came out at 752 s.

Take `Cc1cc(-c2cc(S(=O)(=O)NCCc3ccc(Cl)cc3)c(C)s2)n[nH]1`: the RP-LC retention time amounted to 915 s.

Regarding `O=C(Cn1c(Cc2ccccc2)nc2ccccc21)N1CCCCCC1`, the RP-LC retention time worked out at 670 s.

The values above are taken from the METLIN SMRT retention time set (Domingo-Almenara et al. 2019).
